Reference: patent publication US20240228504A1, “SUBSTITUTED TRICYCLIC AMIDES, ANALOGUES THEREOF, AND METHODS USING SAME” (Arbutus Biopharma Corporation, priority 2020, published 2024)

The compounds below were run on HBV rcDNA in HepDE19 cells (assay: HepDE19 assay with bDNA quantitation of HBV rcDNA). Conditions: HepDE19 assay, inhibition of rcDNA formation, bDNA quantitation; read-out: DE-19bDNA EC50.
Type: cell-based, hepatitis B virus

| Structure (SMILES) | EC50 [nM] |
| --- | --- |
| CN(C(=O)c1cc2c(Cl)cccn2c1)C1CNCc2[nH]c(=O)c3cc(F)c(F)cc3c21 (single isomer, unassigned) [Compound 509, 8-Chloro-N-(8,9-Difluoro-6-oxo-1,2,3,4,5,6-hexahydrobenzo[c][1,7]naphthyridin-1-yl)-N-methylindolizine-2-carboxamide] | 10 |
| CN(C(=O)c1cc2c(F)cccc2[nH]1)C1CNCc2[nH]c(=O)c3cc(F)c(F)cc3c21 (single isomer, unassigned) [Compound 106, N-(8,9-Difluoro-6-oxo-1,2,3,4,5,6-hexahydrobenzo[c][1,7]naphthyridin-1-yl)-4-fluoro-N-methyl-1H-indole-2-carboxamide] | 100 |
| CN1Cc2[nH]c(=O)c3cc(F)ccc3c2C(N(C)C(=O)c2cc3ccccc3[nH]2)C1 (single isomer, unassigned) [Compound 60, N-(8-Fluoro-3-methyl-6-oxo-1,2,3,4,5,6-hexahydrobenzo[c][1,7]naphthyridin-1-yl)-N-methyl-1H-indole-2-carboxamide] | 5900 |
| CN(C(=O)c1cc2c(C(F)F)cc(F)cc2[nH]1)C1CNCc2[nH]c(=O)c3cc(F)ccc3c21 (single isomer, unassigned) [Compound 260, 4-(Difluoromethyl)-6-fluoro-N-(8-fluoro-6-oxo-1,2,3,4,5,6-hexahydrobenzo[c][1,7]naphthyridin-1-yl)-N-methyl-1H-indole-2-carboxamide] | 60 |
| CN(C(=O)c1cc(F)c(Br)c(F)c1)C1CNCc2[nH]c(=O)c3cc(F)c(F)cc3c21 (single isomer, unassigned) [Compound 165, 4-Bromo-N-(8,9-difluoro-6-oxo-1,2,3,4,5,6-hexahydrobenzo[c][1,7]naphthyridin-1-yl)-3,5-difluoro-N-methylbenzamide] | 20 |
| CN(C(=O)c1cc2c(F)c(F)ccc2[nH]1)C1COCc2[nH]c(=O)c3cc(F)c(F)cc3c21 (single isomer, unassigned) [Compound 46, N-(8,9-Difluoro-6-oxo-1,4,5,6-tetrahydro-2H-pyrano[3,4-c]isoquinolin-1-yl)-4,5-difluoro-N-methyl-1H-indole-2-carboxamide] | 5 |
| CN(C(=O)c1cc2ccccc2[nH]1)C1COCc2[nH]c(=O)c3cc(F)c(F)cc3c21 (single isomer, unassigned) [Compound 22, N-(8,9-Difluoro-6-oxo-1,4,5,6-tetrahydro-2H-pyrano[3,4-c]isoquinolin-1-yl)-N-methyl-1H-indole-2-carboxamide] | 10 |
| CN(C(=O)c1cc2cccc(C(F)F)n2c1)C1CNCc2[nH]c(=O)c3cc(F)c(F)cc3c21 (single isomer, unassigned) [Compound 433, N-(8,9-Difluoro-6-oxo-1,2,3,4,5,6-hexahydrobenzo[c][1,7]naphthyridin-1-yl)-5-(difluoromethyl)-N-methylindolizine-2-carboxamide] | 50 |
| CN(C(=O)c1cc2cc(F)ccn2c1)C1CNCc2[nH]c(=O)c3cc(F)c(F)cc3c21 (single isomer, unassigned) [Compound 163, N-(8,9-Difluoro-6-oxo-1,2,3,4,5,6-hexahydrobenzo[c][1,7]naphthyridin-1-yl)-7-fluoro-N-methylindolizine-2-carboxamide] | 30 |
| Cc1cc(F)cc2[nH]c(C(=O)N(C)C3CNCc4[nH]c(=O)c5cc(F)c(F)cc5c43)cc12 (single isomer, unassigned) [Compound 459, N-(8,9-difluoro-6-oxo-1,2,3,4,5,6-hexahydrobenzo[c][1,7]naphthyridin-1-yl)-6-fluoro-N,4-dimethyl-1H-indole-2-carboxamide] | 10 |
| CN(C(=O)c1cc2c(C(F)F)c(F)ccc2[nH]1)C1COCc2[nH]c(=O)c3cc(F)ccc3c21 (single isomer, unassigned) [Compound 256, 4-(Difluoromethyl)-5-fluoro-N-(8-fluoro-6-oxo-1,4,5,6-tetrahydro-2H-pyrano[3,4-c]isoquinolin-1-yl)-N-methyl-1H-indole-2-carboxamide] | 10 |
| CN(C(=O)c1cc2cc(F)ccc2[nH]1)[C@@H]1CCC(O)c2[nH]c(=O)c3cc(F)c(F)cc3c21 (single isomer, unassigned) [Compound 501] | 10 |
| CN(C(=O)c1cc2ccccc2[nH]1)C1CNCc2[nH]c(=O)c3cc(F)ccc3c21 (single isomer, unassigned) [Compound 78, N-(8-Fluoro-6-oxo-1,2,3,4,5,6-hexahydrobenzo[c][1,7]naphthyridin-1-yl)-N-methyl-1H-indole-2-carboxamide] | 8100 |
| CN(C(=O)c1cc(F)c(C(F)F)c(F)c1)C1CNCc2[nH]c(=O)c3cc(F)c(F)cc3c21 (single isomer, unassigned) [Compound 184, N-(8,9-Difluoro-6-oxo-1,2,3,4,5,6-hexahydrobenzo[c][1,7]naphthyridin-1-yl)-4-(difluoromethyl)-3,5-difluoro-N-methylbenzamide] | 70 |

Same assay, conditions: Hepatitis B virus, HepDE19, HepDE19 assay, inhibition of rcDNA formation, bDNA quantitation; read-out: DE-19bDNA EC50

| Structure (SMILES) | EC50 [nM] |
| --- | --- |
| CN(C(=O)c1cc2cc(F)c(F)cc2[nH]1)[C@@H]1COC(F)c2[nH]c(=O)c3cc(F)c(F)cc3c21 (stereo partly drawn) [Compound 411, 5,6-Difluoro-N-methyl-N-((1S)-4,8,9-trifluoro-6-oxo-1,4,5,6-tetrahydro-2H-pyrano[3,4-c]isoquinolin-1-yl)-1H-indole-2-carboxamide] | 10 |
| CN(C(=O)C(O)(c1ccccc1)c1ccccc1)[C@@H]1COCc2[nH]c(=O)c3cc(F)c(F)cc3c21 [Compound 229, (S)-N-(8,9-Difluoro-6-oxo-1,4,5,6-tetrahydro-2H-pyrano[3,4-c]isoquinolin-1-yl)-2-hydroxy-N-methyl-2,2-diphenylacetamide] | 8400 |
| CN(C(=O)c1cccc(Oc2cccc(F)c2)c1)C1CNCc2[nH]c(=O)c3cc(F)c(F)cc3c21 (single isomer, unassigned) [Compound 339, N-(8,9-Difluoro-6-oxo-1,2,3,4,5,6-hexahydrobenzo[c][1,7]naphthyridin-1-yl)-3-(3-fluorophenoxy)-N-methylbenzamide] | 25000 |
| CN(C(=O)C1(O)CCCCC1)[C@@H]1COCc2[nH]c(=O)c3cc(F)c(F)cc3c21 [Compound 211, (S)-N-(8,9-Difluoro-6-oxo-1,4,5,6-tetrahydro-2H-pyrano[3,4-c]isoquinolin-1-yl)-1-hydroxy-N-methylcyclohexane-1-carboxamide] | 7660 |
| CN(C(=O)c1cc2sc(Cl)cc2[nH]1)C1COCc2[nH]c(=O)c3cc(F)ccc3c21 (racemic) [Compound 452, 2-Chloro-N-(8-fluoro-6-oxo-1,4,5,6-tetrahydro-2H-pyrano[3,4-c]isoquinolin-1-yl)-N-methyl-4H-thieno[3,2-b]pyrrole-5-carboxamide] | 80 |
| CN(C(=O)c1cc(F)cc(-c2cccc(F)c2)c1)[C@@H]1COCc2[nH]c(=O)c3cc(F)c(F)cc3c21 [Compound 291, (S)-N-(8,9-Difluoro-6-oxo-1,4,5,6-tetrahydro-2H-pyrano[3,4-c]isoquinolin-1-yl)-3′,5-difluoro-N-methyl-[1,1′-biphenyl]-3-carboxamide] | 10100 |
| O=C(N[C@@H]1COCc2[nH]c(=O)c3cc(F)c(F)cc3c21)c1ccc(Cl)c(F)c1 [Compound 159, (S)-4-chloro-N-(8,9-difluoro-6-oxo-1,4,5,6-tetrahydro-2H-pyrano[3,4-c]isoquinolin-1-yl)-3-fluorobenzamide] | 660 |
| CCC(CC)C(=O)OC1OC[C@@H](N(C)C(=O)c2cc3cc(F)c(F)cc3[nH]2)c2c1[nH]c(=O)c1cc(F)c(F)cc21 (stereo partly drawn) [Compound 331, (1S)-1-(5,6-Difluoro-N-methyl-1H-indole-2-carboxamido)-8,9-difluoro-6-oxo-1,4,5,6-tetrahydro-2H-pyrano[3,4-c]isoquinolin-4-yl 2-ethylbutanoate] | 10 |
| CN(C(=O)c1cnc(C(F)(F)F)c(Cl)c1)C1CNCc2[nH]c(=O)c3cc(F)c(F)cc3c21 (single isomer, unassigned) [Compound 419, 5-Chloro-N-(8,9-difluoro-6-oxo-1,2,3,4,5,6-hexahydrobenzo[c][1,7]naphthyridin-1-yl)-N-methyl-6-(trifluoromethyl)nicotinamide] | 140 |
| CN(C(=O)C1Cc2ccc(F)cc21)[C@@H]1COCc2[nH]c(=O)c3cc(F)c(F)cc3c21 (stereo partly drawn) [Compound 279, N-((S)-8,9-Difluoro-6-oxo-1,4,5,6-tetrahydro-2H-pyrano[3,4-c]isoquinolin-1-yl)-4-fluoro-N-methylbicyclo[4.2.0]octa-1(6),2,4-triene-7-carboxamide] | 9500 |
| CCc1cc(F)cc2[nH]c(C(=O)N(C)[C@@H]3COCc4[nH]c(=O)c5cc(F)c(F)cc5c43)cc12 [Compound 342, (S)-N-(8,9-Difluoro-6-oxo-1,4,5,6-tetrahydro-2H-pyrano[3,4-c]isoquinolin-1-yl)-4-ethyl-6-fluoro-N-methyl-1H-indole-2-carboxamide] | 10 |
| CN(C(=O)c1cc2c(F)c(F)c(F)cc2[nH]1)[C@@H]1COCc2[nH]c(=O)c3cc(F)c(F)cc3c21 [Compound 97, (S)-N-(8,9-Difluoro-6-oxo-1,4,5,6-tetrahydro-2H-pyrano[3,4-c]isoquinolin-1-yl)-4,5,6-trifluoro-N-methyl-1H-indole-2-carboxamide] | 10 |
| CN(C(=O)c1cccc(C(F)F)c1)[C@@H]1COCc2[nH]c(=O)c3cc(F)c(F)cc3c21 [Compound 86, (S)-N-(8,9-Difluoro-6-oxo-1,4,5,6-tetrahydro-2H-pyrano[3,4-c]isoquinolin-1-yl)-3-(difluoromethyl)-N-methylbenzamide] | 30 |
| COc1nc2c(c3cc(F)c(F)cc13)[C@H](N(C)C(=O)c1cc3cc(F)c(F)cc3[nH]1)COC2 [Compound 241, (S)-N-(8,9-Difluoro-6-methoxy-1,4-dihydro-2H-pyrano[3,4-c]isoquinolin-1-yl)-5,6-difluoro-N-methyl-1H-indole-2-carboxamide] | 30 |
| CN(C(=O)C1Cc2cc(F)c(F)cc2C1)[C@@H]1COCc2[nH]c(=O)c3cc(F)c(F)cc3c21 [Compound 233, (S)-N-(8,9-Difluoro-6-oxo-1,4,5,6-tetrahydro-2H-pyrano[3,4-c]isoquinolin-1-yl)-5,6-difluoro-N-methyl-2,3-dihydro-1H-indene-2-carboxamide] | 40 |
